# Source: PMC3068151 (PLoS ONE, 2011)
# What was measured:
# EphB4 = molecular target: T1, EphB4 (Homo sapiens, UniProt P54760); test: Phosphorylated-EphB4 sandwich ELISA in T47D cell lysates; format: cell-based; settings: T47D cells, 3 µg/ml ephrinB2-Fc preclustered with 0.3 µg/ml IgG Fc fragment; read-out: IC50 EphB4 phosphorylation
# T1 construct: EphB4 phosphorylation on T47D breast cancer cells; endogenous in cells; host or cells: T47D
# T1 sequence (P54760 16-987): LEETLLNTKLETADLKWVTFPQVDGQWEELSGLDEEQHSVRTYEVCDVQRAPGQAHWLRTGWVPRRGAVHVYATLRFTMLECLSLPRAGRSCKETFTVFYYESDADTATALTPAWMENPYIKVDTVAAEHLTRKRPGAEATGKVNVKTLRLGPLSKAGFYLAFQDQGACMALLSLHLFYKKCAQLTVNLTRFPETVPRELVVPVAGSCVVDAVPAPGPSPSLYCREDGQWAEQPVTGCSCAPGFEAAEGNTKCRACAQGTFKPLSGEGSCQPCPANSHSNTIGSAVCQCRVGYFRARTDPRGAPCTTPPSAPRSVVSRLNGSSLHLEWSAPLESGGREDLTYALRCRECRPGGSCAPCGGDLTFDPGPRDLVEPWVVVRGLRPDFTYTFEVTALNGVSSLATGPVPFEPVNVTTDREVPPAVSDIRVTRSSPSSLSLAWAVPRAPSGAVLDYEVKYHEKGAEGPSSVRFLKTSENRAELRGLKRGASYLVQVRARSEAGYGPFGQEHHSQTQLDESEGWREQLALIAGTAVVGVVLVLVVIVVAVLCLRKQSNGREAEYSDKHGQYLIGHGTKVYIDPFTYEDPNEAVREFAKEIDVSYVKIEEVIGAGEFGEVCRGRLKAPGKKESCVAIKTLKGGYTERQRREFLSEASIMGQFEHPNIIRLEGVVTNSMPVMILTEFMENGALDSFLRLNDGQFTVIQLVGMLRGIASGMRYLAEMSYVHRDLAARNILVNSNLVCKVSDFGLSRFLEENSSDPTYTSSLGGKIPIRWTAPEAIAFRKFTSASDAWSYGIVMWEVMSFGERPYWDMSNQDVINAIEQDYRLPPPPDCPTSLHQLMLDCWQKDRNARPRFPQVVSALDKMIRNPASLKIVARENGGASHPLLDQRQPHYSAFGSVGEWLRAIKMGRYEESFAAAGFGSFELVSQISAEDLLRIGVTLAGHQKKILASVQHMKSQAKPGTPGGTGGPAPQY
# Procedure: (§1) Cells were seeded in 12-well plates at concentration of 10^5cells/ml in complete medium until they reached ∼40% confluence and serum starved overnight. The day after cells were treated with compounds under study, vehicle or standard drug, stimulated with the proper agonist, rinsed with sterile PBS and solubilized in lysis buffer. The lysates were resuspended and rocked at 4°C for 30 minutes and then centrifuged at 14000 xg for 5 minutes. The protein content of supernatant was measured with BCA protein assay kit (Thermo scientific), standardized to 200 µg/ml and transferred into a clean test tube ready to be used.
# (§2) EphA2-, EphB4- and EGFR-phosphorylation were measured in cell lysates using DuoSet®IC Sandwich ELISA (RnD Systems, #DYC4056, #DYC4057 and #DYC1095, respectively) following manufacturer's protocol. […] The day after wells were washed and blocked for 1 hour at room temperature. After that, wells were washed and 100 µl/well of lysates were added at room temperature for 2 hours; wells were washed and incubated with Detection Antibody at room temperature for 2 hours.
# EphB4 phosphorylation was stimulated with 3 µg/ml ephrinB2-Fc, preclustered with 0.3 µg/ml IgG Fc fragment on T47D cells (G, H, I). […] Phospho-EphA2/B4 levels are relative to ephrinA1/B2-Fc+DMSO. Data are the means of at least three independent experiment ± st. err. […]
# EGFR = EGFR (Homo sapiens, UniProt P00533); test: Phosphorylated-EGFR sandwich ELISA in HT29 cells; format: cell-based; settings: 100 µM, 10 ng/ml EGF
# Chain of EGFR (P00533 25-1210): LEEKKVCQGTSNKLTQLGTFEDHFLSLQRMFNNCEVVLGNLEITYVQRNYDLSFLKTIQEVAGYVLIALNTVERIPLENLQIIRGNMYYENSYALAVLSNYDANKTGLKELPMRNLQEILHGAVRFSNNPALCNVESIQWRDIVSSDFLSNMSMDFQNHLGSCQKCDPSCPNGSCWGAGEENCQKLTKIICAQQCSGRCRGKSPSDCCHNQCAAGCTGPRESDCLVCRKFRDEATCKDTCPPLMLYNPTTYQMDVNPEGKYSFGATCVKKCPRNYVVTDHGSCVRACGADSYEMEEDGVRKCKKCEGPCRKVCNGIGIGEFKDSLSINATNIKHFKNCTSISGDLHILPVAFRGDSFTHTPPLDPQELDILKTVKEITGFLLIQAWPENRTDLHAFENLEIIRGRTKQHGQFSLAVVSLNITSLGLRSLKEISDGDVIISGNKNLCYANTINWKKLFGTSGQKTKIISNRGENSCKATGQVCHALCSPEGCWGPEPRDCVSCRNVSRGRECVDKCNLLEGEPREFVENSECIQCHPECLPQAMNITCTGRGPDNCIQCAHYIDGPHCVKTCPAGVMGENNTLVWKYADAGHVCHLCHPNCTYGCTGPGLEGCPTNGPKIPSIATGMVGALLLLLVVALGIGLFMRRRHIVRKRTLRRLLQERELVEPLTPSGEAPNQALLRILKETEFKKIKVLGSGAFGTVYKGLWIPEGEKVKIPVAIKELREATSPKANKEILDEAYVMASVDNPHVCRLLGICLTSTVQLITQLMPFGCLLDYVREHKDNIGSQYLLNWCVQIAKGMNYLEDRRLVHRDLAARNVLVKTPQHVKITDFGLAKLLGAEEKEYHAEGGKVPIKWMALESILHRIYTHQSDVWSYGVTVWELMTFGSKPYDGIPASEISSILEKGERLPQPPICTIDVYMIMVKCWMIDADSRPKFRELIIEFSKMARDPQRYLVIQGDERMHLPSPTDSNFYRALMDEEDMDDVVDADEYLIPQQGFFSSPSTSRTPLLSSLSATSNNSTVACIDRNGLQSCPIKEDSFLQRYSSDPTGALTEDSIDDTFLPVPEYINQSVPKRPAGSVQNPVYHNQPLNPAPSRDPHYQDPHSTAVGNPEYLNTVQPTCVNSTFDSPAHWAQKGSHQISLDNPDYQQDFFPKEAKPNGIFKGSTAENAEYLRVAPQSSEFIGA
# Procedure: as §1, §2
# (§3) A, B) EGFR phosphorylation was induced by 30 ng/ml and 10 ng/ml EGF on PC3 (A) and HT29 (B) cells, respectively. […] Data are the means of two experiments ± st. err.
# VEGFR = VEGFR activity, cellular dielectric spectroscopy in HUVE cells; format: cell-based; settings: 100 µM, 0.1 nM VEGF
# Procedure: Impedance measurement was monitored for 10 minutes. VEGF receptor tyrosine kinase inhibitor II (Calbiochem-Merck, Darmstadt, Germany) was used as a standard reference.
# (§4) These assays were performed at CEREP (Celle L'Evescault, France).
# as §3
# IRKβ = molecular target: T2, IRKβ (Homo sapiens, UniProt P06213); test: IRKβ activity, alpha Technology; format: cell-based; settings: 100 µM, 100 nM insulin
# T2 construct: in HepG2 or A431 cells, respectively; endogenous in cells; host or cells: HepG2 according to b24; A431 according to the order in the legend b55
# T2 sequence (P06213 763-1382 limits assumed): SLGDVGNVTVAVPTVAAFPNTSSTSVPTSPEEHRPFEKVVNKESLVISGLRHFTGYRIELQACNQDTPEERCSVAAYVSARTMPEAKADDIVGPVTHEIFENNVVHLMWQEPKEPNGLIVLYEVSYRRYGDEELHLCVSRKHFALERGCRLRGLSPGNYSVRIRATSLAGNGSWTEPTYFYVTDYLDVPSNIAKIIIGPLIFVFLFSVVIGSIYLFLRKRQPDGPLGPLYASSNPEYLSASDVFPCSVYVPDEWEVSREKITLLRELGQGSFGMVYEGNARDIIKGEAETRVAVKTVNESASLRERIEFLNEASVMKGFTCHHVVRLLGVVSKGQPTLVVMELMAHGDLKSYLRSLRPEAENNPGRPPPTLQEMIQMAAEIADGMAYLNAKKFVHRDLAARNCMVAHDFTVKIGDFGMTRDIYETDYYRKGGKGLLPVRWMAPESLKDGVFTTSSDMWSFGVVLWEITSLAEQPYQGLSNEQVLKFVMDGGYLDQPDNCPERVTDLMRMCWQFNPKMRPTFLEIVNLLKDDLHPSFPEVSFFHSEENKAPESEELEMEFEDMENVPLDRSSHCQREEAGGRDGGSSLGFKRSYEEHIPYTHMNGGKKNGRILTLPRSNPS
# T2 sequence (P06213 28-758 partner limits assumed): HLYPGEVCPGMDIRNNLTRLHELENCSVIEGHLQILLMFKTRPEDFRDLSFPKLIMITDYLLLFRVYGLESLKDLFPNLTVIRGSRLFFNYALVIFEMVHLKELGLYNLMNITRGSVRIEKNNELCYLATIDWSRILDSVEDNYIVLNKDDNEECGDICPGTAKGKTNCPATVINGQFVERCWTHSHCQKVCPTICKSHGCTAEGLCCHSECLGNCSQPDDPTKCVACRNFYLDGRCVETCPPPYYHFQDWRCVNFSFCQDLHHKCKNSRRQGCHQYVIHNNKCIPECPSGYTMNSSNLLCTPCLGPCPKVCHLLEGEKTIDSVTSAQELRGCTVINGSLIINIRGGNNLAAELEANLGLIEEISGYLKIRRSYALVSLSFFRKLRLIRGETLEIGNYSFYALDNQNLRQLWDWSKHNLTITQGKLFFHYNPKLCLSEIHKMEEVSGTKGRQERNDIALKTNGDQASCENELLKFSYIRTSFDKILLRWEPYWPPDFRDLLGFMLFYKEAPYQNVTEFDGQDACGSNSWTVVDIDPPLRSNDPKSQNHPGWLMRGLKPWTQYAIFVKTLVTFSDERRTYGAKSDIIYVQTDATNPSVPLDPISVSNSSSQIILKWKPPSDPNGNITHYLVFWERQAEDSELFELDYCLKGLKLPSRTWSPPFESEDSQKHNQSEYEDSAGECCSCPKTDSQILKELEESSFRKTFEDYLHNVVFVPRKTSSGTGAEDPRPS
# Procedure: Cells were stimulated with 5 nM IGF1 or 100 nM insulin for 10 minutes, lysed and a fluorescence acceptor (alphaLISA protein A beads coated with anti-phospho-IRKβ or -IGFR1β) added for 2 hours. A fluorescence donor (streptavidin coupled-beads) coated with an antibody towards IRKβ or IGFR1β was incubated for 2 hours and the signal was measured at λex = 680 nm and λem = 500 nm and 600 nm using a microplate reader (EnVision, Perkin Elmer, Waltham, MA, USA).
# as §4, §3
# PC3 cells = test: PC3 cell rounding assay; format: cell-based, human; settings: for inhibition of ephrinA1-Fc induced PC3 cell rounding: 0.5 µg/ml ephrinA1-Fc, 30 minutes
# Procedure: PC3 cells were grown on 12-well culture plates and starved overnight in Ham-F12 medium with 0.5% FBS. DMSO (final concentration 0.25%) or compounds were incubated for 20 min, before stimulation with 0.5 µg/ml ephrinA1-Fc or Fc for 30 minutes. During this time cells were observed and pictures were taken from the same field, before and after incubation, under a microscope (Leica, DM IL). Cell rounding was evaluated using ImageJ program.
# Cell images were collected from the same field at time 0 and 30 minutes using a digital camera mounted on a Leica DM IL microscope. […] Cells, which rounded their shape and having an area less than 20% of the initial value, were scored as retracting. Data are the means of at least three independent experiments ± st. err. One-way ANOVA followed by Dunnet's post test was performed comparing ephrinA1-Fc+DMSO to all other columns. *, p<0.05, **,p<0.01.
# EphA2 = EphA2 (Homo sapiens, UniProt P29317); test: Phosphorylated-EphA2 sandwich ELISA in PC3 cell lysates; format: cell-based; design: their known ability to naturally express EphA2; endogenous in cells; host or cells: PC3 (A5); settings: PC3 cells
# Chain of EphA2 (P29317 24-976): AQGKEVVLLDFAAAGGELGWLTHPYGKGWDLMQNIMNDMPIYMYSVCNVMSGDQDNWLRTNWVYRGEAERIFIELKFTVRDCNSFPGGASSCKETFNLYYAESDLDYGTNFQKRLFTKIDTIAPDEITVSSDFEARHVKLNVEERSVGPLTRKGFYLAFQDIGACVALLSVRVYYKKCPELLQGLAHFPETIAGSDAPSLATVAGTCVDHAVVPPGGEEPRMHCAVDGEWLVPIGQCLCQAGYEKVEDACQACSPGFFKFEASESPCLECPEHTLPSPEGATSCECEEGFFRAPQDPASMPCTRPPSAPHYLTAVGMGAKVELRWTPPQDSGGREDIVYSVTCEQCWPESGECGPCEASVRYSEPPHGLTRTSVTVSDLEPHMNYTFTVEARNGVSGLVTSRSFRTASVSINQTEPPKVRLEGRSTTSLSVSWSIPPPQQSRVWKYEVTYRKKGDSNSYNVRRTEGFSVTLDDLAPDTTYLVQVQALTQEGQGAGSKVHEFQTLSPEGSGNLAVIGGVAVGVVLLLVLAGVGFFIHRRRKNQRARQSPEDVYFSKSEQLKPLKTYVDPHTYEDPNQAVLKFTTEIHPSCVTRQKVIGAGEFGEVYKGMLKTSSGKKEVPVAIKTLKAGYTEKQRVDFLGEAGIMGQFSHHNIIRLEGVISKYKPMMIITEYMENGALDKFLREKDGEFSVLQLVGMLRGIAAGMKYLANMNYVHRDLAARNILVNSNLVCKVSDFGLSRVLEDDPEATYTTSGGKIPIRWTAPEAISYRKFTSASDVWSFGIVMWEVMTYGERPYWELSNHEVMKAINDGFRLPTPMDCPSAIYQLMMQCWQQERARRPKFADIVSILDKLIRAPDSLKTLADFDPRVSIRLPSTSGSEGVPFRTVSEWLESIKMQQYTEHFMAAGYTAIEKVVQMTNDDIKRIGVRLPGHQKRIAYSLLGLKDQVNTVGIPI
# Procedure: as §1, §2
# EphB4 phosphorylation was stimulated with 3 µg/ml ephrinB2-Fc, preclustered with 0.3 µg/ml IgG Fc fragment on T47D cells (G, H, I). […] Phospho-EphA2/B4 levels are relative to ephrinA1/B2-Fc+DMSO. Data are the means of at least three independent experiment ± st. err. One-way ANOVA followed by Dunnet's post test was performed comparing Fc to all other columns for Fig A, D, G and ephrinA1-Fc+DMSO to all other columns for Fig B,C,E, F, H, I. *, p<0.05, **, p<0.01.
smiles,measurement,setting,value
"C[C@H](CCC(=O)O)[C@H]1CC[C@H]2[C@@H]3CC[C@@H]4C[C@H](O)CC[C@]4(C)[C@H]3CC[C@]12C [LCA, lithocholic acid]",IC50,EphB4,141 µM
same,effect on EGF-induced EGFR phosphorylation,EGFR,completely inactive
same,effect on VEGFR activity as agonist or antagonist,VEGFR,failed to affect activity
same,effect on IRKβ activity as agonist or antagonist,IRKβ,failed to affect activity
same,inhibition of ephrinA1-Fc induced PC3 cell rounding,PC3 cells; 10 µM,inactive
same,inhibition of ephrinA1-Fc induced PC3 cell rounding,PC3 cells; 100 µM,blocked cell rounding
same,changes in PC3 cell morphology by compound alone,PC3 cells; incubated with Fc for 30 minutes,Neither DMSO 0.25% nor LCA alone induced changes in cell morphology
same,inhibition of EphA2 phosphorylation,EphA2; 10 µM,subthreshold
same,inhibition of EphA2 phosphorylation,EphA2; 100 µM,inhibiting completely
